According to ChEMBL document CHEMBL1201862, “PubChem BioAssay data set” (2004):
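Step 1: Grow cells in 96-well plates. Step 2: Expose to compound for 48 hours at 5 concentrations. Step 3: Interpolate endpoints linearly; if unreached, use highest concentration. The concentration for 50% growth inhibition is given as GI50.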 The source made the active and inactive calls. Rule as the data show it: active = GI50 up to about 1.1 µM and inactive = higher.

Key:
Experiment in all cases: growth of human tumour cells (NCI), 48 h
786-0 = tested on: 786-0
A549 = tested on: A549
DU-145 = tested on: DU-145
HOP-92 = tested on: HOP-92
LOX IMVI = tested on: LOX IMVI
M19-MEL = tested on: M19-MEL
MOLT-4 = tested on: MOLT-4
Malme-3M = tested on: Malme-3M
NCI-H23 = tested on: NCI-H23
NCI-H522 = tested on: NCI-H522
OVCAR-3 = tested on: OVCAR-3
OVCAR-4 = tested on: OVCAR-4
SF-268 = tested on: SF-268
SK-MEL-2 = tested on: SK-MEL-2
SK-MEL-5 = tested on: SK-MEL-5
SN12C = tested on: SN12C
SNB-75 = tested on: SNB-75
U-251 = tested on: U-251
UACC-257 = tested on: UACC-257
UO-31 = tested on: UO-31

| SMILES | GI50 (786-0) | GI50 (A549) | GI50 (DU-145) | GI50 (HOP-92) | GI50 (LOX IMVI) | GI50 (M19-MEL) | GI50 (MOLT-4) | GI50 (Malme-3M) | GI50 (NCI-H23) | GI50 (NCI-H522) | GI50 (OVCAR-3) | GI50 (OVCAR-4) | GI50 (SF-268) | GI50 (SK-MEL-2) | GI50 (SK-MEL-5) | GI50 (SN12C) | GI50 (SNB-75) | GI50 (U-251) | GI50 (UACC-257) | GI50 (UO-31) |
| --- | --- | --- | --- | --- | --- | --- | --- | --- | --- | --- | --- | --- | --- | --- | --- | --- | --- | --- | --- | --- |
| COc1ccc2c(=O)c(-c3cc(OC)c(OC)cc3OC)coc2c1 | 4.11 µM (inactive) | 5.41 µM (inactive) | 2.86 µM (inactive) | 1.81 µM (inactive) | 5.51 µM (inactive) | 4.15 µM (inactive) | 2 µM (inactive) | 4.54 µM (inactive) | 8.67 µM (inactive) | 1.28 µM (inactive) | 1.84 µM (inactive) | > 100 µM (inactive) | 4.73 µM (inactive) | 2.27 µM (inactive) | 1.55 µM (inactive) | 13.3 µM (inactive) | 2.26 µM (inactive) | 2.19 µM (inactive) | 11.3 µM (inactive) | 34 µM (inactive) |
| COc1ccc2c(c1)c1ccc3c(c1n2C)C(=O)C=CC3=O | 6.78 µM (inactive) | 29 µM (inactive) | 9.77 µM (inactive) | 4.95 µM (inactive) | 8.83 µM (inactive) | 25.4 µM (inactive) | 0.834 µM (active) | 7.76 µM (inactive) | 13 µM (inactive) | 3.15 µM (inactive) | 8.39 µM (inactive) | 8.38 µM (inactive) | 15 µM (inactive) | 17.2 µM (inactive) | 19.3 µM (inactive) | 8.38 µM (inactive) | 31.7 µM (inactive) | 12.5 µM (inactive) | 10.9 µM (inactive) | 11.4 µM (inactive) |
| COC(=O)C(c1ccc(OC)cc1)N1C(=O)[C@@H](NC(=O)c2ccccc2)[C@H]1[C@@H](C)O (stereo partly drawn) | > 100 µM (inactive) | > 100 µM (inactive) |  | > 100 µM (inactive) | > 100 µM (inactive) | > 100 µM (inactive) | > 100 µM (inactive) | > 100 µM (inactive) | > 100 µM (inactive) | > 100 µM (inactive) | > 100 µM (inactive) | > 100 µM (inactive) | > 100 µM (inactive) | > 100 µM (inactive) | > 100 µM (inactive) | > 100 µM (inactive) | > 100 µM (inactive) | > 100 µM (inactive) | > 100 µM (inactive) | > 100 µM (inactive) |
| O=c1[nH]c2cc([N+](=O)[O-])ccc2nc1/C(=N/Nc1ccccc1)C(O)c1ccccc1Cl (stereo not drawn) | > 100 µM (inactive) | 41.9 µM (inactive) |  | > 100 µM (inactive) | > 100 µM (inactive) | 52.8 µM (inactive) | > 100 µM (inactive) | 85.3 µM (inactive) | 90.8 µM (inactive) | 4.68 µM (inactive) | 59.3 µM (inactive) | 79.8 µM (inactive) | > 100 µM (inactive) | > 100 µM (inactive) | 33 µM (inactive) | > 100 µM (inactive) | 28.2 µM (inactive) | 58.6 µM (inactive) | > 100 µM (inactive) | 21.1 µM (inactive) |
| O=C(O)C#CCO | > 100 µM (inactive) | > 100 µM (inactive) |  | > 100 µM (inactive) | > 100 µM (inactive) | > 100 µM (inactive) | > 100 µM (inactive) | > 100 µM (inactive) | > 100 µM (inactive) | > 100 µM (inactive) | > 100 µM (inactive) | > 100 µM (inactive) | > 100 µM (inactive) | > 100 µM (inactive) | > 100 µM (inactive) | > 100 µM (inactive) | > 100 µM (inactive) | > 100 µM (inactive) | > 100 µM (inactive) | > 100 µM (inactive) |
| CCC(/C=C/C1OC(=O)C=CC1C)=C\C(C)C/C=C/C(C)=C/C(C)C(=O)C(C)C(O)C(C)C/C(C)=C/C(=O)O (stereo not drawn) | < 1e-06 µM (active) | 0.946 µM (active) | 0.000264 µM (active) | 4.98e-06 µM (active) | < 1e-06 µM (active) | 1.16 µM (inactive) | 1.06 µM (active) | 1.44 µM (inactive) | 1.04 µM (active) | 0.955 µM (active) | 0.649 µM (active) | 1.64 µM (inactive) | 4.07e-06 µM (active) | 4.31 µM (inactive) | 4.88e-05 µM (active) | 2.72 µM (inactive) | 1.91 µM (inactive) | 2.26 µM (inactive) | 1.62 µM (inactive) | 2.35 µM (inactive) |
| O=C1/C(=C/c2ccccc2)CN(C(=O)Oc2ccc([N+](=O)[O-])cc2)C/C1=C\c1ccccc1 | 4.49 µM (inactive) | > 10 µM (inactive) |  | > 10 µM (inactive) | 0.676 µM (active) | 1.77 µM (inactive) | 0.649 µM (active) | > 10 µM (inactive) | 7.76 µM (inactive) | 3.18 µM (inactive) | 3.73 µM (inactive) | 2.56 µM (inactive) | 5.09 µM (inactive) | 14.2 µM (inactive) | 3.64 µM (inactive) | 2.79 µM (inactive) | 4.4 µM (inactive) | 1.77 µM (inactive) | 5.18 µM (inactive) | 9.77 µM (inactive) |
| O=[N+]([O-])c1ccc(-c2ccc(/C=N/n3c(S)nnc3-c3ccc(Cl)cc3)o2)cc1 | 19.2 µM (inactive) | 28 µM (inactive) |  | > 42 µM (inactive) | 47.5 µM (inactive) | 21.1 µM (inactive) | 15 µM (inactive) | 17.4 µM (inactive) | 27.2 µM (inactive) | 28.6 µM (inactive) | 27.9 µM (inactive) | > 38.1 µM (inactive) | 24.7 µM (inactive) | 34.2 µM (inactive) | 20.5 µM (inactive) | > 49.2 µM (inactive) | 33.3 µM (inactive) | 21.6 µM (inactive) | > 57.5 µM (inactive) | > 24.2 µM (inactive) |
| COC(OC)[C@@H](C)[C@H](O)[C@](C)(O)C1OC(C)(C)OC(C(C)C=C(C)C)C1C (stereo partly drawn) | > 100 µM (inactive) | > 100 µM (inactive) |  | > 100 µM (inactive) | > 100 µM (inactive) | > 100 µM (inactive) | 72.4 µM (inactive) | > 100 µM (inactive) | > 100 µM (inactive) | > 100 µM (inactive) | > 100 µM (inactive) | > 100 µM (inactive) | > 100 µM (inactive) | > 100 µM (inactive) | 64.9 µM (inactive) | > 100 µM (inactive) | > 100 µM (inactive) | > 100 µM (inactive) | 93.1 µM (inactive) | 80.7 µM (inactive) |
| Cc1cc(N(CCC#N)CCC#N)ccc1/C=C/C(=O)Nc1cccc(Cl)c1 | > 100 µM (inactive) | > 100 µM (inactive) |  | 43.4 µM (inactive) | 52.2 µM (inactive) | > 100 µM (inactive) | > 100 µM (inactive) | > 100 µM (inactive) | > 100 µM (inactive) | 62.7 µM (inactive) | > 100 µM (inactive) | 58.6 µM (inactive) | > 100 µM (inactive) | > 100 µM (inactive) | > 100 µM (inactive) | > 100 µM (inactive) | 89.9 µM (inactive) | > 100 µM (inactive) | > 100 µM (inactive) | 27.6 µM (inactive) |
| Cc1nc(Nc2ccc(Cl)c(Cl)c2)sc1C(/C=C/c1ccc2c(c1)OCO2)=N/Nc1ccc([N+](=O)[O-])cc1[N+](=O)[O-] | 20.1 µM (inactive) | > 100 µM (inactive) | > 100 µM (inactive) | 85.1 µM (inactive) | 67 µM (inactive) | > 100 µM (inactive) | > 56.2 µM (inactive) | > 100 µM (inactive) | 67.3 µM (inactive) | 61 µM (inactive) | > 100 µM (inactive) | > 100 µM (inactive) | > 100 µM (inactive) | > 100 µM (inactive) | > 82.8 µM (inactive) | > 100 µM (inactive) | 13.2 µM (inactive) | 41.1 µM (inactive) | > 100 µM (inactive) | 78.2 µM (inactive) |
